Source: paper PMC3723905, “Glycogen Phosphorylase Inhibitor N-(3,5-Dimethyl-Benzoyl)-N’-(β-D-Glucopyranosyl)Urea Improves Glucose Tolerance under Normoglycemic and Diabetic Conditions and Rearranges Hepatic Metabolism” (PLoS ONE, 2013)

Target: T1, rabbit muscle glycogen phosphorylase (Oryctolagus cuniculus, UniProt P00489)
T1 construct: gene PYGM
T1 sequence (P00489 2-843): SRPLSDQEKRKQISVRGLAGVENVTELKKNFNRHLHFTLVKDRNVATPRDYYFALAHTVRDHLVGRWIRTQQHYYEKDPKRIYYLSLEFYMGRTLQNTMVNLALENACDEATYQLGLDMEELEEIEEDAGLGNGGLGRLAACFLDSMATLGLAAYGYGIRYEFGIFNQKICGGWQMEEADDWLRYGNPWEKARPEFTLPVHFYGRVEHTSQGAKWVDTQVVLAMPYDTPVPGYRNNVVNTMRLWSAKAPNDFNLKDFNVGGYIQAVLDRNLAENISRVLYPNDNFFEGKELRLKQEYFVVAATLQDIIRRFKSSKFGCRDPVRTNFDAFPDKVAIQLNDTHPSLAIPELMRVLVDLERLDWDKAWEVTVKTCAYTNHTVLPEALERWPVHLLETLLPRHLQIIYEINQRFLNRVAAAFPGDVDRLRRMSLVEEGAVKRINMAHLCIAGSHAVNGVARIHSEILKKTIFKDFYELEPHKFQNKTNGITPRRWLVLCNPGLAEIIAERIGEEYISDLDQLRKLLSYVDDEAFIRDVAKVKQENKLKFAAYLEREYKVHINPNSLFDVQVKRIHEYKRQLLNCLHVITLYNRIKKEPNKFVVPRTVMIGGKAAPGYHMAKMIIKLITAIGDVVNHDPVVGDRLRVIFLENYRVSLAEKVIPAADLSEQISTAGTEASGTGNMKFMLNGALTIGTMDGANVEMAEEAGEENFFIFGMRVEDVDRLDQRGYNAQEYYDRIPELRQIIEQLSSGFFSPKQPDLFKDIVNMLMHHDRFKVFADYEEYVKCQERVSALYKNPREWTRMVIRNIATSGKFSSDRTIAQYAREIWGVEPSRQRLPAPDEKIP
Test: enzyme kinetics on purified rabbit muscle glycogen phosphorylase
Format: biochemical

Ki: 930 ± 50 nM
SMILES: Cc1cc(C)cc(C(=O)NC(=O)N[C@@H]2O[C@H](CO)[C@@H](O)[C@H](O)[C@H]2O)c1 [compound 4, N-(3,5-dimethyl-benzoyl)-N’-(β-D-glucopyranosyl)urea]
